Results on two compounds are retold here after patent publication EP4745153A1, “GLP-1, GIP AND GCG RECEPTOR […] USE THEREOF” (Jiangsu Hengrui Pharmaceuticals Co., Ltd., priority 2023, dated 2025).

This data set is described as follows: Pharmacokinetics in mice after single intravenous injection. Also noted: species or system C57 mice. As to conditions: in vivo. How it is done:
Male C57 mice were used as test animals. The target compound was administered via a single intravenous injection, and the pharmacokinetic characteristics of the compound in C57 mice in vivo (plasma) were determined.
Male C57 mice, weighing approximately 25g, aged 4-6 weeks. After preparing the polypeptide compound solution using 1×PBS dissolving solution, the compound was administered intravenously at a dose of 200 nmol/kg, where each compound was administered to 3 animals. Blood samples of 60 µL were collected at 5 min, 15 min, 0.5 h, 1 h, 2 h, 4 h, 6 h, 24 h, 48 h and 72 h after the infusion was completed and transferred to centrifuge tubes containing EDTA-K2 anticoagulant. Whole blood samples were centrifuged at 4000 g for 5 min at 4°C. Plasma was separated and plasma samples were frozen and stored at -80 °C.
Sample pretreatment method: 30 µL of plasma samples was taken, and 120 µL of 0.1% formic acid in methanol containing 1 ng/mL internal standard verapamil was added. The mixture was vortexed for 5 min, and centrifuged at 10000 rpm for 10 min at low temperature. 70 µL of supernatant was taken, and 70 µL of water was added and mixed well. Analysis was performed by LC-MS instrument.
LC-MS analysis method: (1) chromatographic conditions: mobile phases A and B: 0.1% formic acid in water and 0.1% formic acid in acetonitrile, respectively; gradient elution mode; flow rate: 0.5 mL/min; injection volume: 10 µL; chromatographic column: nanomicro Unisil C18aq (4.6 mm × 150 mm, 5 µm); column temperature: 40°C. (2) Mass spectrometry conditions: For mass spectrometry, an electrospray ionization source (ESI), positive ion analysis mode, and multiple reaction monitoring (MRM) scanning mode were used.
For data processing, SCIEX OS (Version 2.1.6) software was used to quantify blood drug concentration data and PKSolver (Version 2.0) software was used to calculate pharmacokinetic parameters.

[1] abbreviates: mouse, male C57 mice, single intravenous dose 200 nmol/kg, plasma.

Where two headings read alike, the source gives them in different places. Starred links: 1 amine or outer side, 2 acyl side, 3 side chain; linkers in the order of their positions; H or OH if unused. Non-standard residues stand in square brackets, D forms with d. Residues, ends and D or L forms follow the SMILES beside them. Groups on a side chain read outwards from the residue. ξ: configuration not given here. *: point of attachment. C20 diacid = O=C(O)CCCCCCCCCCCCCCCCCCC(=O)*; γGlu = O=C(O)[C@H](CCC(=O)[*:2])N[*:1]; αMeK = C[C@](N)(CCCCN)C(=O)O; ξIva = CCC(C)(N)C(=O)O; AEEA = NCCOCCOCC(=O)O; Aib = CC(C)(N)C(=O)O

Turning to `CC[C@H](C)[C@H](NC(=O)[C@H](CC(C)C)NC(=O)[C@H](Cc1c[nH]c2ccccc12)NC(=O)[C@H](CCC(=O)O)NC(=O)[C@@H](NC(=O)[C@H](Cc1ccccc1)NC(=O)[C@H](CCC(=O)O)NC(=O)C(C)(CC)NC(=O)[C@H](C)NC(=O)[C@H](C)NC(=O)[C@H](CCCCN)NC(=O)[C@H](CCCCNC(=O)COCCOCCNC(=O)COCCOCCNC(=O)CC[C@H](NC(=O)CCCCCCCCCCCCCCCCCCC(=O)O)C(=O)O)NC(=O)[C@H](CCC(=O)O)NC(=O)[C@H](CC(C)C)NC(=O)[C@H](CC(C)C)NC(=O)[C@](C)(CCCCN)NC(=O)[C@H](CO)NC(=O)[C@H](Cc1ccc(O)cc1)NC(=O)[C@H](CC(=O)O)NC(=O)[C@H](CO)NC(=O)[C@@H](NC(=O)[C@H](Cc1ccccc1)NC(=O)[C@@H](NC(=O)CNC(=O)[C@H](Cc1c[nH]cn1)NC(=O)C(C)(C)NC(=O)[C@@H](N)Cc1c[nH]cn1)[C@@H](C)O)[C@@H](C)O)C(C)C)C(=O)N[C@@H](CCC(=O)O)C(=O)NCC(=O)NCC(=O)N1CCC[C@H]1C(=O)N[C@@H](CO)C(=O)N[C@@H](CO)C(=O)NCC(=O)N[C@@H](C)C(=O)N1CCC[C@H]1C(=O)N1CCC[C@H]1C(=O)N1CCC[C@H]1C(=O)N[C@@H](CO)C(N)=O` (stereo partly drawn) [Compound 0131] (H-H[Aib]HGTFTSDYS[αMeK]LLEK([AEEA-AEEA-γGlu-C20 diacid])KAA[ξIva]EFVEWLIEGGPSSGAPPPS-NH2), under setting [1], the AUC(0-inf) amounted to 22.5 µM·h and the C0 amounted to 5.98 µM. Moreover, the clearance (mouse, male C57 mice, single intravenous dose 200 nmol/kg, plasma, read-out: CLp) was 0.148 mL/min/kg. The half-life (mouse, male C57 mice, single intravenous dose 200 nmol/kg, plasma, read-out: T1/2 (converted)) is 10.2 h.

Consider `CC[C@H](C)[C@H](NC(=O)[C@H](CO)NC(=O)[C@H](CC(C)C)NC(=O)[C@H](CC(=O)O)NC(=O)[C@H](CO)NC(=O)[C@@H](NC(=O)[C@H](Cc1ccccc1)NC(=O)[C@@H](NC(=O)CNC(=O)[C@H](Cc1c[nH]cn1)NC(=O)C(C)(C)NC(=O)[C@@H](N)Cc1c[nH]cn1)[C@@H](C)O)[C@@H](C)O)C(=O)N[C@@](C)(CC(C)C)C(=O)N[C@@H](CC(C)C)C(=O)N[C@@H](CCC(=O)O)C(=O)N[C@@H](CCCCNC(=O)COCCOCCNC(=O)COCCOCCNC(=O)CC[C@H](NC(=O)CCCCCCCCCCCCCCCCCCC(=O)O)C(=O)O)C(=O)N[C@@H](CCCCN)C(=O)N[C@@H](C)C(=O)N[C@@H](C)C(=O)NC1(C(=O)N[C@@H](CCC(=O)O)C(=O)N[C@@H](Cc2ccccc2)C(=O)N[C@H](C(=O)N[C@@H](CCC(=O)O)C(=O)N[C@@H](Cc2c[nH]c3ccccc23)C(=O)N[C@@H](CC(C)C)C(=O)N[C@@H](CC(C)C)C(=O)N[C@@H](C)C(=O)NCC(=O)NCC(=O)N2CCC[C@H]2C(=O)N[C@@H](CO)C(=O)N[C@@H](CO)C(=O)NCC(=O)N[C@@H](C)C(=O)N2CCC[C@H]2C(=O)N2CCC[C@H]2C(=O)N2CCC[C@H]2C(=O)N[C@@H](CO)C(N)=O)C(C)C)CCC1` [Compound 0140], for which, where the note is “male, C57, mouse, iv”, the clearance stood at 0.115 mL/min/kg and the half-life is 9.3 h.

As a reminder, the AUC(0-inf) is total exposure, with the tail of the curve extrapolated. Read a high AUC(0-inf) as more exposure.
